The target in this test is MLK3 (Homo sapiens (Human), UniProt Q16584). Put plainly: Radiometric Filter Plate MLK3 Assay. The format is biochemical. The following applies: read-out: MK3 IC50. As for the experimental part:
Radiometric Filter Plate MLK3 Assay
After a twenty minute incubation, the reactions were washed through filter plates and read on a scintillation counter. Results are shown in Table 4 below, in which +++ indicates ≦0.1 μM, ++ indicates >0.1 μM and ≦1 μM, and + indicates >1 μM.

Setting [1] is: 200 ng (130 nM) MLK3, 1 μM inactive MKK7b, 2 μM cold ATP (Km), 33P ATP, twenty minute incubation.

Where two headings read alike, the source gives them in different places. A value given as a limit tells only on which side of the number the result lay.

MLK3, sequence (Q16584 whole entry): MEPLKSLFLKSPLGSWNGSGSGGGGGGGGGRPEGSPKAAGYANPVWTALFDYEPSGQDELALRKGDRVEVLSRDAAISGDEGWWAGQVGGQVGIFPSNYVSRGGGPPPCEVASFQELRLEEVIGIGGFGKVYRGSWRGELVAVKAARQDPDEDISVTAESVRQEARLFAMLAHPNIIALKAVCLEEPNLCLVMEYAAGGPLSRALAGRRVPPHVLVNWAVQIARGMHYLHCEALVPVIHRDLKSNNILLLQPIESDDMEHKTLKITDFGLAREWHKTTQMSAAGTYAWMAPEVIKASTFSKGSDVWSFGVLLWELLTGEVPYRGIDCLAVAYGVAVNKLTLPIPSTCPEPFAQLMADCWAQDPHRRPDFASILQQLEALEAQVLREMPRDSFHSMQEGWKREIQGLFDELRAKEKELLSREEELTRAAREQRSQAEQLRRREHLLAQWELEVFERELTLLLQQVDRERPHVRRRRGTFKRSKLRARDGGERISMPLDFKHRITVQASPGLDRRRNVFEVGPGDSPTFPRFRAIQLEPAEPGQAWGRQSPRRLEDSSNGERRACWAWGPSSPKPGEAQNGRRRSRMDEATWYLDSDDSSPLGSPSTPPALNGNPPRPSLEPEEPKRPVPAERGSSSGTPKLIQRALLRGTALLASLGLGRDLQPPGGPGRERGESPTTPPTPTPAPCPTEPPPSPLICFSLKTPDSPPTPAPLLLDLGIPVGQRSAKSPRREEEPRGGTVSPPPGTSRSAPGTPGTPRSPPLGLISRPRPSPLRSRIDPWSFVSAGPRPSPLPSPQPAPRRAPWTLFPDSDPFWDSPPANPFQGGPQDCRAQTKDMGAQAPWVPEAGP

As to `COc1cc(-c2cnc3[nH]cc(-c4ccc(CNC(=O)Cc5ccccc5)cc4)c3c2)cc(OC)c1OC` [Example 160, 2-phenyl-N-{4-[5-(3,4,5-trimethoxy-phenyl)-1H-pyrrolo[2,3-b]pyridin-3-yl]-benzyl}-acetamide], the IC50 (as a rule, the midpoint of a concentration-inhibition curve) fell in the range of 100 to 1000 nM.
Take `COc1cc(-c2cnc3[nH]c(=O)n(CC4CC4)c3n2)ccc1OCCN1CCOCC1` [Example 107, 1-(cyclopropylmethyl)-6-(3-methoxy-4-(2-morpholinoethoxy)phenyl)-1H-imidazo[4,5-b]pyrazin-2(3H)-one]: the IC50 was 100 to 1000 nM.
Take `CC(=O)Nc1ccc(-c2cnc3[nH]cc(-c4ccc5[nH]ccc5c4)c3c2)cc1` [Example 3, N-(4-(3-(1H-indol-5-yl)-1H-pyrrolo[2,3-b]pyridin-5-yl)phenyl)acetamide]: under setting [1], the IC50 is < 100 nM.
Still for that read-out and setting: next, `O=c1[nH]c2ncc(-c3ccncc3)nc2n1C1CCCC1` [Example 77, 1-cyclopentyl-6-(pyridin-4-yl)-1H-imidazo[4,5-b]pyrazin-2(3H)-one]: > 1000 nM.
The same measure, in the same setting: next, `COc1cc(-c2cnc3[nH]c(=O)n(-c4ccc5[nH]ccc5c4)c3n2)cc(OC)c1O` [Example 62, 6-(4-hydroxy-3,5-dimethoxyphenyl)-1-(1H-indol-5-yl)-1H-imidazo[4,5-b]pyrazin-2(3H)-one]: < 100 nM.
With `c1ccc(-c2cnc3[nH]cc(-c4ccc5[nH]ccc5c4)c3c2)cc1` [Example 14, 3-(1H-indol-5-yl)-5-phenyl-1H-pyrrolo[2,3-b]pyridine], the 50% inhibitory concentration (IC50) lay in the range of 100 to 1000 nM.
As to `COc1cc(OC)cc(-c2cnc3[nH]c(=O)n(-c4ccc5[nH]ccc5c4)c3n2)c1` [Example 65, 6-(3,5-dimethoxyphenyl)-1-(1H-indol-5-yl)-1H-imidazo[4,5-b]pyrazin-2(3H)-one], under setting [1], the IC50 was > 1000 nM.
Still for that read-out and setting: next, `O=c1[nH]c2ncc(-c3ccc(N4CCOCC4)cc3)nc2n1-c1ccc2scnc2c1` [Example 100, 1-(benzo[d]thiazol-5-yl)-6-(4-morpholinophenyl)-1H-imidazo[4,5-b]pyrazin-2(3H)-one]: > 1000 nM; `O=c1[nH]c2ncc(-c3cc(Cl)cc(Cl)c3)nc2n1CC1CC1` [Example 80, 1-(cyclopropylmethyl)-6-(3,5-dichlorophenyl)-1H-imidazo[4,5-b]pyrazin-2(3H)-one]: > 1000 nM.
For the compound `COc1ccc(-c2cnc3[nH]cc(-c4ccc5[nH]ccc5c4)c3n2)cc1OC` [Example 37, 2-(3,4-dimethoxyphenyl)-7-(1H-indol-5-yl)-5H-pyrrolo[3,2-b]pyrazine], the IC50 under setting [1] is < 100 nM.
Same read-out and setting: next, `COc1ccc(-n2c(=O)[nH]c3ncc(-c4ccc(OC)c(OC)c4)nc32)cc1` [Example 69, 6-(3,4-dimethoxyphenyl)-1-(4-methoxyphenyl)-1H-imidazo[4,5-b]pyrazin-2(3H)-one]: > 1000 nM; `COc1ccc(-c2cnc3[nH]c(=O)n(-c4ccc5[nH]ncc5c4)c3n2)cc1OC` [Example 87, 6-(3,4-dimethoxyphenyl)-1-(1H-indazol-5-yl)-1H-imidazo[4,5-b]pyrazin-2(3H)-one]: > 1000 nM.
For `COc1cc(-c2cnc3[nH]c(=O)n(-c4ccc(O)cc4)c3n2)cc(OC)c1OC` [Example 114, 1-(4-hydroxyphenyl)-6-(3,4,5-trimethoxyphenyl)-1H-imidazo[4,5-b]pyrazin-2(3H)-one], the IC50 lay within 100 to 1000 nM.
The same measure, in the same setting: the same measure for `COc1cc(-c2cnc3[nH]cc(-c4ccc(-c5ncc[nH]5)cc4)c3c2)cc(OC)c1OC` [Example 167, 3-[4-(1H-imidazol-2-yl)-phenyl]-5-(3,4,5-trimethoxy-phenyl)-1H-pyrrolo[2,3-b]pyridine]: 100 to 1000 nM.
`Cc1cc2cc(-n3c(=O)[nH]c4ncc(-c5cc(Cl)cc(Cl)c5)nc43)ccc2[nH]1` [Example 73, 6-(3,5-dichlorophenyl)-1-(2-methyl-1H-indol-5-yl)-1H-imidazo[4,5-b]pyrazin-2(3H)-one]: the IC50 under setting [1] is > 1000 nM.
On the same count and under the same terms, next, `Nc1ncc(-c2cnc3[nH]cc(-c4cnc(N)nc4)c3c2)cn1` [Example 20, 5,5′-(1H-pyrrolo[2,3-b]pyridine-3,5-diyl)dipyrimidin-2-amine]: > 1000 nM; `COc1ccc(-c2cnc3[nH]cc(-c4ccc(C(N)=O)cc4)c3c2)cc1OC` [Example 26, 4-(5-(3,4-dimethoxyphenyl)-1H-pyrrolo[2,3-b]pyridin-3-yl)benzamide]: < 100 nM; `Cc1cc(C)cc(-c2cnc3[nH]c(=O)n(-c4ccc5scnc5c4)c3n2)c1` [Example 99, 1-(benzo[d]thiazol-5-yl)-6-(3,5-dimethylphenyl)-1H-imidazo[4,5-b]pyrazin-2(3H)-one]: > 1000 nM.
On to `COc1cc(-c2cnc3[nH]c(=O)n(-c4ccc5c(ccn5C)c4)c3n2)cc(OC)c1OC` [Example 41, 1-(1-methyl-1H-indol-5-yl)-6-(3,4,5-trimethoxyphenyl)-1H-imidazo[4,5-b]pyrazin-2(3H)-one], for which the IC50 was 100 to 1000 nM.
For the compound `COc1cc(-c2cnc3c(c2)C(CC2CC2)C(=O)N3)cc(OC)c1OC` (centres unmarked) [Example 123, 3-(cyclopropylmethyl)-5-(3,4,5-trimethoxyphenyl)-1H-pyrrolo[2,3-b]pyridin-2(3H)-one], the half-inhibitory concentration (IC50) under setting [1] fell in the range of 100 to 1000 nM.
The same measure, in the same setting: next, `COc1cc(-c2cnc3c(c2)C(=Cc2ccccc2)C(=O)N3)cc(OC)c1OC` [Example 130, 3-benzylidene-5-(3,4,5-trimethoxy-phenyl)-1,3-dihydro-pyrrolo[2,3-b]pyridin-2-one]: > 1000 nM; `CC(C)(C)OC(=O)N1CCN(Cc2ccc(-c3cnc4[nH]cc(-c5ccc6[nH]ccc6c5)c4c3)cc2)CC1` [Example 144, 4-{4-[3-(1H-indol-5-yl)-1H-pyrrolo[2,3-b]pyridin-5-yl]-benzyl}-piperazine-1-carboxylic acid tert-butyl ester]: < 100 nM.
Consider `CN1CCN(Cc2cccc(-c3cnc4[nH]cc(-c5ccc6[nH]ccc6c5)c4c3)c2)CC1=O` [Example 143, 4-{3-[3-(1H-indol-5-yl)-1H-pyrrolo[2,3-b]pyridin-5-yl]-benzyl}-1-methyl-piperazin-2-one], for which the IC50 under setting [1] is < 100 nM.
Regarding `c1cc2cc(-c3c[nH]c4ncc(-c5ccc(N6CCNCC6)nc5)cc34)ccc2[nH]1` [Example 10, 3-(1H-indol-5-yl)-5-(6-(piperazin-1-yl)pyridin-3-yl)-1H-pyrrolo[2,3-b]pyridine], the IC50 is 100 to 1000 nM.
On to `COc1cc(-c2cnc3c(c2)C(=Cc2ccc(C#N)cc2)C(=O)N3)cc(OC)c1OC` [Example 133, 4-[2-oxo-5-(3,4,5-trimethoxy-phenyl)-1,2-dihydro-pyrrolo[2,3-b]pyridin-3-ylidenemethyl]-benzonitrile], for which the IC50 under setting [1] was > 1000 nM.
On the same count and under the same terms, next, `Nc1ccc(-c2cnc3[nH]cc(-c4ccc(F)c(Cl)c4)c3c2)cn1` [Example 29, 5-(3-(3-chloro-4-fluorophenyl)-1H-pyrrolo[2,3-b]pyridin-5-yl)pyridin-2-amine]: > 1000 nM.
On to `COc1cc(-c2cnc3[nH]cc(-c4ccc(CNC(=O)CCc5ccccc5)cc4)c3c2)cc(OC)c1OC` [Example 161, 3-phenyl-N-{4-[5-(3,4,5-trimethoxy-phenyl)-1H-pyrrolo[2,3-b]pyridin-3-yl]-benzyl}-propionamide], for which the IC50 is 100 to 1000 nM.
On the same count and under the same terms, next, `O=c1[nH]c2ncc(-c3ccc(N4CCOCC4)cc3)nc2n1-c1ccc2[nH]cnc2c1` [Example 104, 1-(1H-benzo[d]imidazol-5-yl)-6-(4-morpholinophenyl)-1H-imidazo[4,5-b]pyrazin-2(3H)-one]: 100 to 1000 nM.
Consider `CNC(=O)c1ccc(-c2c[nH]c3ncc(-c4cc(OC)c(OC)c(OC)c4)cc23)cc1` [Example 164, N-methyl-4-[5-(3,4,5-trimethoxy-phenyl)-1H-pyrrolo[2,3-b]pyridin-3-yl]-benzamide], for which, under setting [1], the IC50 was > 1000 nM.
Same read-out and setting: the same measure for `Cc1cc(C)cc(-c2cnc3[nH]c(=O)n(-c4ccc5c(ccn5C)c4)c3n2)c1` [Example 43, 6-(3,5-dimethylphenyl)-1-(1-methyl-1H-indol-5-yl)-1H-imidazo[4,5-b]pyrazin-2(3H)-one]: > 1000 nM.
On the same count and under the same terms, the same measure for `CN(C)c1ccc(-c2cnc3[nH]cc(-c4ccc(F)c(Cl)c4)c3c2)cn1` [Example 22, 5-(3-(3-chloro-4-fluorophenyl)-1H-pyrrolo[2,3-b]pyridin-5-yl)-N,N-dimethylpyridin-2-amine]: > 1000 nM; for `COc1cc(-c2cnc3[nH]cc(-c4ccc5[nH]ccc5c4)c3n2)ccc1OCCN1CCOCC1` [Example 39, 4-(2-(4-(7-(1H-indol-5-yl)-5H-pyrrolo[3,2-b]pyrazin-2-yl)-2-methoxyphenoxy)ethyl)morpholine]: < 100 nM.
Consider `c1cc2cc(-c3cnc4[nH]cc(-c5ccc6[nH]ccc6c5)c4c3)ccc2[nH]1` [Example 12, 3,5-di(1H-indol-5-yl)-1H-pyrrolo[2,3-b]pyridine], for which the IC50 lay in the range of 100 to 1000 nM.
Take `COc1cc(-c2cnc3ncn(-c4ccc5[nH]ccc5c4)c3n2)cc(OC)c1OC` [Example 126, 1-(1H-indol-5-yl)-6-(3,4,5-trimethoxyphenyl)-1H-imidazo[4,5-b]pyrazine]: the 50% inhibitory concentration (IC50) under setting [1] is > 1000 nM.
On to `CN(C)c1ccc(-c2cnc3[nH]cc(-c4ccc5[nH]ccc5c4)c3c2)cn1` [Example 13, 5-(3-(1H-indol-5-yl)-1H-pyrrolo[2,3-b]pyridin-5-yl)-N,N-dimethylpyridin-2-amine], for which the half-maximal inhibitory concentration (IC50) was in the range of 100 to 1000 nM.
Still for that read-out and setting: next, `NC(=O)c1ccc(-c2c[nH]c3ncc(-c4ccc(N)nc4)cc23)cc1` [Example 28, 4-(5-(6-aminopyridin-3-yl)-1H-pyrrolo[2,3-b]pyridin-3-yl)benzamide]: 100 to 1000 nM.
`CN1CCN(Cc2cccc(-c3cnc4[nH]cc(-c5ccc(C(N)=O)cc5)c4c3)c2)CC1` [Example 156, 4-{5-[3-(4-methyl-piperazin-1-ylmethyl)-phenyl]-1H-pyrrolo[2,3-b]pyridin-3-yl}-benzamide]: under setting [1], the IC50 is < 100 nM.
Same read-out and setting: the same measure for `O=c1[nH]c2ncc(-c3cc(F)cc(F)c3)nc2n1-c1ccc2[nH]ccc2c1` [Example 61, 6-(3,5-difluorophenyl)-1-(1H-indol-5-yl)-1H-imidazo[4,5-b]pyrazin-2(3H)-one]: > 1000 nM.

These data come from patent US9814704B2, “Substituted pyrrolo[2,3-b]pyridines as MLK inhibitors” (The University of Rochester, priority 2008, dated 2017).
